Patent US20050267016A1, “CD-10 activated prodrug compounds” (priority 2001, published 2005)
“And” between values parts separate entries of the source, which are not always exact repeats. Identical values can stand only once. Like-named read-outs stand apart in the source and are kept apart here.

How the values were obtained:
[1] = test system: HT-29 (colon carcinoma) cells; experiment: cells; assay type: cell-based, human; details: 48 hours total incubation, read-out: IC50 HT29
Description: (§1) Adherent cells, LNCaP (prostate carcinoma), HT-29 (colon carcinoma) and PC-3 (prostate carcinoma), were cultured in DMEM media containing 10% heat inactivated fetal calf serum (FCS). On the day of the study the cells were detached from the plate with a trypsin solution. The collected cells were washed and resuspended at a concentration of 0.25×10^6 cells/ml in DMEM containing 10% FCS. 100 μl of cell suspension were added to 96 well plates and the plates were incubated for 3 hours to allow the cells to adhere. […] The plates were then incubated for 24 hours, pulsed with 10 μl of a 100 μCi/ml ^3H-thymidine and incubated for an additional 24 hours (total incubation time 48 hours). The plates were harvested using a 96 well Harvester (Packard Instruments) and counted on a Packard Top Count Counter. Four parameter logistic curves were fitted to the ^3H-thymidine incorporation as a function of drug molarity using Prism software to determine IC50 values.

[2] = test system: CD10 transfected CHO cells, DB4; experiment: 3H thymidine proliferation assay, CD10 transfected CHO DB4
Description: (§3) The fully assembled coding region was sub-cloned into a mammalian expression vector, downstream of the hCMV-MIE promoter. DNA sequence analysis confirmed sequence identity with the coding sequence of human CD10 (Genbank accession number Y00811). The expression plasmid was linearized and stably transfected into CHO—S cells. CD10 expressing transfectant clones were selected under 500 ug/mL of hygromycin and screened by flow cytometry for cell-surface CD10 expression using a commercially available anti-CD10-FITC antibody.

[3] = test system: human colon carcinoma (HT-29) xenograft; details: 4.0 mg/kg every 7 days for 5 doses
From the text: Healthy young male nude mice were subcutaneously injected with 5 million of HT-29 cells.

[4] = test system: HL60 cells (CD10 negative); experiment: Proliferation of HL60 cells with supernatant from compound-treated CHO cells; assay type: cell-based; details: Homo sapiens
From the text: Confirmation of the data is shown when Suc-βAla-Leu-Ala-Leu-Dox was compared to Suc-Leu-Ala-Gly-Dox and the results are consistent with the fact that Suc-βAla-Leu-Ala-Leu is cleaved by CD10 transfected cells and not by the parental cell lines.

[5] = Metabolism and clearance in normal mice (plasma and urine, LC MS/MS); assay type: in vivo; details: after Suc-βAla-Ile-Ala-Leu-Dox 117 mg/kg
[6] = test system: normal mice; details: mouse, in vivo; cited from earlier work
[7] = test system: PC-3 (prostate carcinoma) cells; experiment: cells; assay type: cell-based, human
Description: as §1
as §1, with “carcinoma), PC-3 (prostate” for “carcinoma), HT-29 (colon”, “and 22 RV1” for “and PC-3”, “with 1:0” for “with 10”

[8] = test system: colorectal carcinoma LS174t xenograft; details: tolerated dose 3 mg/kg, same dosing regimen; cited from earlier work
[9] = test system: CD10 transfected CHO cells, Clone #8; experiment: 3H thymidine proliferation assay, CD10 transfected CHO Clone #8
Description: as §3

[10] = test system: prostate carcinoma LNCaP tumors; details: for mean tumor weight of all mice when terminated: calculated, not shown; for Cancer Endpt.: tumor 1.5 g
Description: The mice were weighed and tumors were measured (by caliper) at least once a week prior to start of dosing (Day 0), then twice a week during the study. Immediately before the start of dosing (Study Day −2 to Day 0), mice were randomized to various groups based on the weight of the tumors. […] Mice were euthanized after the tumors reached a cutoff weight of 1.5 g (cancer endpoint), or when mice suffered over 25% weight loss (toxic endpoint). Studies were terminated at Day 60.

[11] = test system: LNCaP cell homogenate; experiment: Hydrolysis by cultured human cell homogenates; assay type: biochemical
Description: (§2) In addition, 1 μM phosphoramidon, a CD10 inhibitor was included in incubations with LNCaP cell homogenate. To estimate specific activity protein content was estimated in the soluble portion of the homogenates. Results expressed as protein specific activity (FIG. 12) indicate that LNCaP cells which are known to contain CD10 show the greatest Suc-Ile-Ala-Leu-Dox hydrolyzing activity.

[12] = test system: PC-3 cell homogenate; experiment: Hydrolysis by cultured human cell homogenates; assay type: biochemical; details: 12.5 μg/mL, up to 1 hr, 37° C., pH 7.2
Description: as §2

[13] = test system: CD10 transfected CHO cells (clone 8); experiment: Conversion to Leu-Dox or Gly-Dox in cell supernatants, CD10 transfected CHO; assay type: cell-based, Chinese Hamster; details: Clone 8 (CD10 transfected), 10 μM, 37° C.
Description: To directly ask the question of whether the CD10 expressing cells were capable of cleaving the prodrug, supernatants from CD10 transfected or parental CHO cells treated with the compounds were collected. […] After incubation for 1, 4, and 24 hours, an aliquot of each supernatant was transferred to a 96-well plate and frozen at −20° C. Samples were subsequently thawed and analyzed by reversed phase HPLC (4.6×50 mm 21 TSK Super-ODS column) with fluorescence detection after dilution with 3 volumes of acetonitrile, removal of precipitate by centrifugation, and further dilution into 3 volumes of water. When incubated with Suc-βAla-Leu-Ala-Leu-Dox, there was no detectable metabolism to Leu-Dox observed with the parental cell line while clone 8 (CD10 transfected) generated significant levels of Leu-Dox from Suc-βAla-Leu-Ala-Leu-Dox (Table 27).

COc1cccc2c1C(=O)c1c(O)c3c(c(O)c1C2=O)C[C@@](O)(C(=O)CO)C[C@@H]3O[C@H]1C[C@H](N)[C@H](O)[C@H](C)O1 [Doxorubicin, reference compound]
IC50 ([1]; Homo sapiens, HT-29): 52 nM | IC50 ([2]; Cricetulus griseus, CHO, read-out: IC50 DB4): 310 nM | % TGI (Day 14, mean) [3]: 9.3% | % TGI (Day 25, median) [3]: 30.9% | Calculated Mean Day of Survival [3]: 30.0 ± 3.7 days | Extension of Mean Day of Survival over controls [3]: 16.7% | Mean Tumor Weight at Day 14 [3]: 665 ± 103 mg | Median Tumor Weight at Day 25 [3]: 1046 mg | Number of Long Term Survivors [3]: 0/10 | Calculated Mean Day of Survival ([3]; listed as doxorubicin): 30 days | IC50 ([4]; HL-60, 24 h, HL60 fresh compound, 24 hours): 164 nM | IC50 ([4]; HL-60, 24 h, supernatant of Parental CHO, collected 24 hours after exposure): 279 nM | IC50 ([4]; HL-60, supernatant of Clone 8 (CD10 Pos.)): 488 nM | IC50 ([4]; HL-60, supernatant of Clone 10 (CD10 Neg.)): 417 nM | IC50 ([4]; HL-60, supernatant of Clone DB4 (CD10 Pos.)): 491 nM | Urine (% adm. dose) 2 hr ([5]; collected 0-2 hours): 0.21 % adm. dose | Urine (% adm. dose) 24 hr ([5]; collected 2-24 hours): 0.51 % adm. dose | MTD of doxorubicin alone, estimated from the standard safe efficacious dose [6]: 4 mg/kg | IC50 ([7]; Homo sapiens, PC-3, 48 hours total incubation, read-out: IC50 PC-3): 75 nM | IC50 ([7]; Homo sapiens, PC-3, Table 6, 48 hours, read-out: IC50 PC-3 CD10−PSA−): 40 nM | efficacy in LS174t model [8]: historically ineffective | IC50 ([9]; Cricetulus griseus, CHO, read-out: IC50 Clone #8): 570 nM | mean tumor weight of all mice when terminated ([10]; 5 mg/kg Q7DX5): 967 mg | Cancer Endpt. ([10]; 5 mg/kg Q7DX5): 0 | % Tumor Growth Inhibition D14 ([10]; 5 mg/kg i.v. Q7DX5): D14: 32 ± 16% | Survivor (day 60) ([10]; 5 mg/kg i.v. Q7DX5): 1 | Tumor Weight D14 ([10]; 5 mg/kg i.v. Q7DX5): D14: 567 ± 77

CC[C@H](C)[C@H](NC(=O)CCC(=O)O)C(=O)N[C@@H](C)C(=O)N[C@@H](CC(C)C)C(=O)N[C@H]1C[C@H](O[C@H]2C[C@](O)(C(=O)CO)Cc3c(O)c4c(c(O)c32)C(=O)c2c(OC)cccc2C4=O)O[C@@H](C)[C@H]1O [Suc-Ile-Ala-Leu-Dox]
IC50 [1]: 47000 nM | hydrolyzing activity (protein specific activity) ([11]; LNCaP cell homogenate with 1 μM phosphoramidon): inhibited by phosphoramidon | hydrolyzing activity (protein specific activity) ([11]; LNCaP cell homogenate, 12.5 μg/mL, up to 1 hr, 37° C., pH 7.2): greatest | hydrolysis by homogenate [12]: not | IC50 ([7]; 48 hours total incubation, read-out: IC50 PC-3): 88000 nM

CC[C@H](C)[C@H](NC(=O)CCNC(=O)CCC(=O)O)C(=O)N[C@@H](C)C(=O)N[C@@H](CC(C)C)C(=O)N[C@H]1C[C@H](O[C@H]2C[C@](O)(C(=O)CO)Cc3c(O)c4c(c(O)c32)C(=O)c2c(OC)cccc2C4=O)O[C@@H](C)[C@H]1O [Suc-βAla-Ile-Ala-Leu-Dox]
Ratio Suc-β-Ala-Ile-Ala-Leu/Dox ([2]; DB4, ratio of IC50): 14 | IC50 difference to Dox ([9]; CD10 transfected CHO cells): ~16 fold | Ratio Suc-β-Ala-Ile-Ala-Leu/Dox ([9]; Clone #8, ratio of IC50): 15

COc1cccc2c1C(=O)c1c(O)c3c(c(O)c1C2=O)C[C@@](O)(C(=O)CO)C[C@@H]3O[C@H]1C[C@H](NC(=O)[C@H](CC(C)C)NC(=O)[C@H](C)NC(=O)[C@H](CC(C)C)NC(=O)CCNC(=O)CCC(=O)O)[C@H](O)[C@H](C)O1 [Suc-βAla-Leu-Ala-Leu-Dox]
Conversion rate to Leu-Dox or Gly-Dox [13]: 0.30 mM/h | Percent Conversion/Hour to Leu-Dox or Gly-Dox [13]: 3.00 Percent Conversion/Hour | mean tumor weight of all mice when terminated ([10]; 59 mg/kg Q7DX5): 232 mg | Toxic Endpt. ([10]; 59 mg/kg Q7DX5, over 25% weight loss): 7 of 7 and 7 | Cancer Endpt. ([10]; 59 mg/kg Q7DX5): 0 | % Tumor Growth Inhibition D14 ([10]; 59 mg/kg i.v. Q7DX5): D14: 53 ± 15 % | % Tumor Growth Inhibition D21 ([10]; 59 mg/kg i.v. Q7DX5): D21: 66 ± 15 % | Survivor (day 60) ([10]; 59 mg/kg i.v. Q7DX5): 0 | Tumor Weight D14 ([10]; 59 mg/kg i.v. Q7DX5): D14: 391 ± 70 | Tumor Weight D21 ([10]; 59 mg/kg i.v. Q7DX5): D21: 318 ± 67
